Data taken from ChEMBL document CHEMBL4359894, “Novel class of 7-Oxabicyclo[2.2.1]heptene sulfonamides with long alkyl chains displaying improved estrogen receptor α degradation activity” (Eur J Med Chem, 2019).
Active and inactive are the calls of the source. The calls are words filed in the database; no cut-off is given here.

Tests used:
[1] = molecular target: T1, Estrogen receptor (Homo sapiens) (UniProt P03372); assay: Binding affinity to ERalpha (unknown origin) by competitive fluorometric receptor binding assay relative to estradiol
T1 sequence (whole entry): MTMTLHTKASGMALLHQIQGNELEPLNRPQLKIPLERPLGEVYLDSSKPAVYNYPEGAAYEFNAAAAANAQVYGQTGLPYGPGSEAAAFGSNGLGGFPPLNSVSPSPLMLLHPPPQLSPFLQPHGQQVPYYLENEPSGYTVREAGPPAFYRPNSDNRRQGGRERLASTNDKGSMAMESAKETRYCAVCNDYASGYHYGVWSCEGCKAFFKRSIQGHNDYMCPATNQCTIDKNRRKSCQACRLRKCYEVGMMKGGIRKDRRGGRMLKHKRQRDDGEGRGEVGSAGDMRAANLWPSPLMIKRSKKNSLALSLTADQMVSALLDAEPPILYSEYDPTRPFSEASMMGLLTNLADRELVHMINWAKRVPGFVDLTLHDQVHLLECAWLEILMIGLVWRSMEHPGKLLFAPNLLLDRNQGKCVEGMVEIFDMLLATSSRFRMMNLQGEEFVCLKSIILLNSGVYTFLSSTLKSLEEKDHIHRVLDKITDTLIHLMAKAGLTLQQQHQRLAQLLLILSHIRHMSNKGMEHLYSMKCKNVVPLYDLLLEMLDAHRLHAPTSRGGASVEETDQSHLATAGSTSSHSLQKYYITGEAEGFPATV

MCF7 [2] = assay: Induction of apoptosis in human MCF7 cells assessed as live cells at 1 uM incubated for 24 hrs by Annexin V-FITC/propidium iodide staining-based flow cytometric analysis (reference value: 85.37%); assay type: functional
MCF7 [3] = assay: Induction of apoptosis in human MCF7 cells assessed as early apoptotic cells at 10 uM incubated for 24 hrs by Annexin V-FITC/propidium iodide staining-based flow cytometric analysis (reference value: 1.26%); assay type: functional
MCF7 [4] = assay: Induction of apoptosis in human MCF7 cells assessed as necrotic cells at 10 uM incubated for 24 hrs by Annexin V-FITC/propidium iodide staining-based flow cytometric analysis (reference value: 4.65%); assay type: functional
[5] = molecular target: T1, Estrogen receptor (Homo sapiens); assay: Induction of ERalpha degradation in human MCF7 cells assessed as decrease in ERalpha protein expression at 5 uM incubated for 24 hrs by Western blot analysis relative to control; assay type: cell-based
MCF7 [6] = assay: Induction of apoptosis in human MCF7 cells assessed as necrotic cells at 1 uM incubated for 24 hrs by Annexin V-FITC/propidium iodide staining-based flow cytometric analysis (reference value: 4.65%); assay type: functional
MCF7 [7] = assay: Induction of apoptosis in human MCF7 cells assessed as late apoptotic cells at 1 uM incubated for 24 hrs by Annexin V-FITC/propidium iodide staining-based flow cytometric analysis (reference value: 8.73%); assay type: functional
[8] = molecular target: T1, Estrogen receptor (Homo sapiens); assay: Induction of ERalpha degradation in human MCF7 cells assessed as decrease in ERalpha protein expression at 0.5 uM incubated for 24 hrs by Western blot analysis; assay type: cell-based
[9] = molecular target: T1, Estrogen receptor (Homo sapiens); assay: Induction of ERalpha degradation in human MCF7 cells assessed as decrease in ERalpha protein expression at 5 uM incubated for 24 hrs in presence of proteasome inhibitor MG132 by Western blot analysis; assay type: cell-based
MCF7 [10] = assay: Induction of apoptosis in human MCF7 cells assessed as early apoptotic cells at 1 uM incubated for 24 hrs by Annexin V-FITC/propidium iodide staining-based flow cytometric analysis (reference value: 1.26%); assay type: functional
[11] = Volume of distribution at steady state in Sprague-Dawley rat at 3 mg/kg, iv administered via foot dorsal vein by LC-MS/MS analysis; assay type: ADME, organism-based; details: in vivo, read-out: Vdss
[12] = Cmax in Sprague-Dawley rat at 3 mg/kg, iv administered via foot dorsal vein by LC-MS/MS analysis; assay type: ADME, organism-based; design: dose 3 mg/kg, route intravenous; details: in vivo
[13] = molecular target: Estrogen receptor beta (Homo sapiens) (UniProt Q92731); assay: Binding affinity to ERbeta (unknown origin) by competitive fluorometric receptor binding assay relative to estradiol
[14] = Half life in Sprague-Dawley rat at 3 mg/kg, iv administered via foot dorsal vein by LC-MS/MS analysis; assay type: ADME, organism-based; details: in vivo
[15] = Tmax in Sprague-Dawley rat at 3 mg/kg, iv administered via foot dorsal vein by LC-MS/MS analysis; assay type: ADME, organism-based; details: in vivo
[16] = AUC (0 to infinity) in Sprague-Dawley rat at 3 mg/kg, iv administered via foot dorsal vein by LC-MS/MS analysis; assay type: ADME, organism-based; design: dose 3 mg/kg, route intravenous, time infinity; details: in vivo
[17] = Therapeutic index, ratio of IC50 for cytotoxicity against human MCF10A cells to IC50 for antiproliferative activity against human MCF7 cells; assay type: toxicity, cell-based; details: read-out: Ratio IC50
[18] = Plasma clearance in Sprague-Dawley rat at 3 mg/kg, iv administered via foot dorsal vein by LC-MS/MS analysis; assay type: ADME, organism-based
MCF7 [19] = assay: Induction of apoptosis in human MCF7 cells assessed as live cells at 5 uM incubated for 24 hrs by Annexin V-FITC/propidium iodide staining-based flow cytometric analysis (reference value: 85.37%); assay type: functional
[20] = molecular target: T1, Estrogen receptor (Homo sapiens); assay: Induction of ERalpha degradation in human MCF7 cells assessed as decrease in ERalpha protein expression at 1 uM incubated for 24 hrs by Western blot analysis relative to control; assay type: cell-based; design: scale not given: the % may be the effect or the level left
MCF7 [21] = assay: Induction of apoptosis in human MCF7 cells assessed as late apoptotic cells at 5 uM incubated for 24 hrs by Annexin V-FITC/propidium iodide staining-based flow cytometric analysis (reference value: 8.73%); assay type: functional
MCF7 [22] = assay: Antiproliferative activity against human MCF7 cell incubated for 72 hrs by MTT assay; assay type: functional, cell-based; details: MCF7, 72 h
MCF7 [23] = assay: Induction of apoptosis in human MCF7 cells assessed as necrotic cells at 5 uM incubated for 24 hrs by Annexin V-FITC/propidium iodide staining-based flow cytometric analysis (reference value: 4.65%); assay type: functional
MCF7 [24] = assay: Induction of apoptosis in human MCF7 cells assessed as late apoptotic cells at 10 uM incubated for 24 hrs by Annexin V-FITC/propidium iodide staining-based flow cytometric analysis (reference value: 8.73%); assay type: functional
MCF7 [25] = assay: Induction of apoptosis in human MCF7 cells assessed as live cells at 10 uM incubated for 24 hrs by Annexin V-FITC/propidium iodide staining-based flow cytometric analysis (reference value: 85.37%); assay type: functional
MCF7 [26] = assay: Induction of apoptosis in human MCF7 cells assessed as early apoptotic cells at 5 uM incubated for 24 hrs by Annexin V-FITC/propidium iodide staining-based flow cytometric analysis (reference value: 1.26%); assay type: functional
MCF-10A = assay: Cytotoxicity against human MCF10A cell incubated for 72 hrs by MTT assay; assay type: cell-based

Chain of Estrogen receptor beta (Homo sapiens) (Q92731 whole entry): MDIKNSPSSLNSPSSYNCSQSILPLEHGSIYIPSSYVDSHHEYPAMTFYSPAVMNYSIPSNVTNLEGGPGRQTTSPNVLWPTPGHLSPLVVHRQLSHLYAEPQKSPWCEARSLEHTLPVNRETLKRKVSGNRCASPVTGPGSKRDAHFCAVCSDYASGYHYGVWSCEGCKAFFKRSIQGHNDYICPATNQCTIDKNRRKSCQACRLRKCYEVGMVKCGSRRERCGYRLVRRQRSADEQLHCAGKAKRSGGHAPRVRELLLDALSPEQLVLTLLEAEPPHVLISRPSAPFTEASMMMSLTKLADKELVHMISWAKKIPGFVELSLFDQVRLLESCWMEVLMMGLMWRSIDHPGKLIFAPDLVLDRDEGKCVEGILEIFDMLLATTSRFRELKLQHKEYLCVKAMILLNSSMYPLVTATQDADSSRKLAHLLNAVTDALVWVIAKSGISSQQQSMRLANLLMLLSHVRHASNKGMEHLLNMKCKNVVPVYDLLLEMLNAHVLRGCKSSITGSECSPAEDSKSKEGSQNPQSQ

CCCCCCOc1ccc(N(CC(F)(F)F)S(=O)(=O)[C@H]2C[C@H]3O[C@@H]2C(c2ccc(O)cc2)=C3c2ccc(O)cc2)cc1 (relative stereo)
relative binding affinity (RBA) [1]: 3.11
Activity (MCF7 [2]): 79.95%
Activity (MCF7 [3]): 65.96%
Activity (MCF7 [4]): 1.88%
Activity [5]: Active
Activity (MCF7 [6]): 1.34%
Activity (MCF7 [7]): 12.72%
Activity [8]: Active
Activity [9]: inactive
Activity (MCF7 [10]): 5.99%
Vd [11]: 10.7 L/kg
Cmax [12]: 964 ng/mL
relative binding affinity (RBA) [13]: 0.86
half-life [14]: 2.2 h
Tmax [15]: 4.8 min
AUC(0-inf) [16]: 529 ng·h/mL
selectivity ratio [17]: 51
clearance [18]: 105 mL/min/kg
Activity (MCF7 [19]): 12.95%
Activity [20]: 100%
Activity (MCF7 [21]): 40.85%
IC50 (MCF7 [22]): 0.77 µM
Activity (MCF7 [23]): 9.24%
Activity (MCF7 [24]): 18.77%
Activity (MCF7 [25]): 13.39%
Activity (MCF7 [26]): 36.96%
IC50 (MCF-10A): 39.3 µM
